Measured values as given in patent US20240124404A1, “COMPOSITION FOR TREATING DISEASES RELATED TO ADVANCED GLYCATION END PRODUCTS COMPRISING INDOLE DERIVATIVE” (METACEN THERAPEUTICS, priority 2021, published 2024).
Where two headings read alike, the source gives them in different places.

How the values were obtained:
N2a cells = test: Protection against MGO-induced cytotoxicity in N2a cell line (MTT); conditions: Mus musculus
Method: Specifically, N2a cells were dispensed at 2×10^4 cells/well in a 96 well plate. Each cell line was pre-/post-treated with the compound of the present invention at a concentration of 500 nM or aminoguanidine (AG) at a concentration of 1 mM for 1 hour, and then pre-/post-treated with 500 μM MGO, and cultured for 24 hours. The medium was removed and then treated with 0.5 mg/ml 3-(4,5-dimethylthiazol-2-yl)-2,5-diphenyltetrazolium bromide (MTT) solution for 1 hour, and the reduced formazan was dissolved in 150 μl of DMSO, and the cell viability was measured by a microspectrophotometer at a wavelength of 570 nm.

SH-SY5Y cells = test: Protection against MGO-induced cytotoxicity in SH-SY5Y cell line (MTT); conditions: Homo sapiens
Method: Specifically, SH-SY5Y cells were dispensed at 2×10^4 cells/well in a 96 well plate. Each cell line was pre-/post-treated with the compound of the present invention at a concentration of 500 nM or aminoguanidine (AG) at a concentration of 1 mM for 1 hour, and then pre-/post-treated with 500 μM MGO, and cultured for 24 hours. The medium was removed and then treated with 0.5 mg/ml 3-(4,5-dimethylthiazol-2-yl)-2,5-diphenyltetrazolium bromide (MTT) solution for 1 hour, and the reduced formazan was dissolved in 150 μl of DMSO, and the cell viability was measured by a microspectrophotometer at a wavelength of 570 nm.

[1] = Methylglyoxal (MGO) trapping ability: fluorescence intensity of reaction product; type: biochemical; conditions: compound 1.0 mM in MGO+PBS pH 7.4, 37° C., 1 day; ex 355 nm / em 460 nm; 10×10^3 or more = trapping ability
Method: Methylglyoxal (MGO) is a main precursor of advanced glycation end products that cause complications due to diabetes mellitus. Successful trapping of methylglyoxal (MGO) can inhibit the production of advanced glycation end products.
A mixture was prepared by adding methylglyoxal (MGO) to phosphate buffered saline (PBS, Cat no. 10010023, pH 7.4). […] The fluorescence intensity of the reaction product was measured at an excitation wavelength of 355 nm and an emission wavelength of 460 nm using a VICTOR™X3 multilabel plate reader.
The higher the fluorescence intensity measured from the reaction product, the higher the ability of the compound to trap methylglyoxal. In addition, in this experimental example, when the fluorescence intensity was 10×10^3 or more, it was determined that the compound had the ability to trap methylglyoxal.

[2] = Methylglyoxal (MGO) trapping ability: free MGO concentration by HPLC; type: biochemical; conditions: compound 1:1 with MGO in PBS pH 7.4, 37° C.; for MGO concentration on day 7: MGO + PBS control 436.38; for MGO concentration on day 1: MGO + PBS control 499.53
Method: Specifically, a mixture was prepared by adding methylglyoxal (MGO) to phosphate buffered saline (PBS, Cat no. 10010023, pH 7.4). The compound of the present invention was added to the mixture (MGO+PBS) at a concentration of 1:1 with methylglyoxal (MGO) and reacted, and then cultured at 37° C. for 1 day.

[3] = 24 h, read-out: Cell viability, Post-treatment
[4] = read-out: Cell viability, Pre-treatment

Row | SMILES | viability at 1000 µM (N2a cells; [3]) [%] | viability at 1000 µM (N2a cells; [4]) [%] | viability at 1000 µM (SH-SY5Y cells; [3]) [%] | viability at 1000 µM (SH-SY5Y cells; [4]) [%] | Fluorescence intensity on day 1 (×10^3) [1] | MGO concentration on day 7 [2] [µM] | MGO concentration on day 1 [2] [µM]
1 | N=C(N)NN [AG, aminoguanidine] | 102 ± 11.9 | 111 ± 9.32 | 52.01 ± 0.24 | 84.7 ± 1.75 | – | – | –
2 | N[C@H](CO)Cc1c[nH]c2ccc(O)cc12 [Compound 29, (S)-3-(2-amino-3-hydroxypropyl)-1H-indol-5-ol (L-tryptophanol)] | – | – | – | – | 362.50 ± 17.85 ×10^3 | 0 | 18.56
3 | NCC(N)Cc1c[nH]c2ccc(O)cc12 (stereo not shown) [Compound 30, 3-(2,3-diaminopropyl)-1H-indol-5-ol] | – | – | – | – | 156.92 ± 1.22 ×10^3 | 16.43 | 235.58
4 | N#CC(N)Cc1c[nH]c2ccc(O)cc12 (stereo not shown) [Compound 31, 2-amino-3-(5-hydroxy-1H indol-3-yl)propanenitrile] | – | – | – | – | 14.58 ± 0.34 ×10^3 | 0 | 7.30
